Data on 22 compounds can be found in patent US9546157B2, “Asymmetric piperidinyl-substituted ureas as medicines” (Helsinn Healthcare SA, priority 2014, dated 2017).

Experiment [1] concerns the target T1, GHSR1a (Homo sapiens, UniProt Q92847).
T1 construct: expressed in transfected cells; host or cells: HEK293
Nature of the experiment: Calcium FLIPR assay, GHSR-1a agonism. The format is cell-based. On the set-up: Emax: unit not given here. As to conditions: HEK293/GHSR1a cells. The protocol:
(§1) The intracellular calcium assay was carried out in a 384-well format FLIPR™ (Molecular Device) HEK293/GHSR1a cell line. Cells were seeded 24 hr prior to the experiments at an optimal density per well. Preincubation with selected calcium dye lasted for 30-60 min at room temperature or 37° C. Test compounds, dissolved in DMSO, were added at the appropriate time and incubated for 15 min followed by the addition of ghrelin with FlexStation or FLIPR. Relative fluorescence was monitored by the FLIPR™ Molecular Device. EC50 and IC50 values were estimated from dose-response data using GraphPad Prism software. To check for GHSR-1a agonism the compound was added at t=20 sec. and the calcium response was followed for 2 minutes. To check for GHSR-1a antagonism the compound and Ghrelin (10 nM) were added to the cells at t=20 sec. and the calcium response was measured for 2 minutes. The potency of the antagonist was calculated by its ability to reduce the ghrelin response. Dose-response curves were made for relevant antagonists.

Experiment [2] has as its target T1, GHSR1a. Nature of the experiment: Calcium FLIPR assay, GHSR-1a antagonism (reduction of ghrelin response). The format is cell-based. The conditions noted are these: HEK293/GHSR1a cells, ghrelin 10 nM. On the procedure:
as §1

T1 sequence (Q92847 whole entry): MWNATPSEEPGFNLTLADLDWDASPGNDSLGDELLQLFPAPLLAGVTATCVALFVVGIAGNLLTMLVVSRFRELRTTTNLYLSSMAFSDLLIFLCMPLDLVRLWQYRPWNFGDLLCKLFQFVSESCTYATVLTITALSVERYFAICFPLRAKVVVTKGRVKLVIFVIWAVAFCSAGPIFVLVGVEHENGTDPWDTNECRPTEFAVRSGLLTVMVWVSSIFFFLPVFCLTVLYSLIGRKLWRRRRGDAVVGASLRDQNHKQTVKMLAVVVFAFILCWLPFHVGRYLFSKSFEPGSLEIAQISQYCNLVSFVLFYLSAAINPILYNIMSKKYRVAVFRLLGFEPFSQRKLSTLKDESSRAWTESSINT

One may read the EC50 as the concentration that produces a half-maximal response. The IC50 is the concentration needed to halve the response being measured. Take `CCC(NC(=O)N(CC)C1CCN(C)CC1)c1ccc(-c2cnccn2)c(Cl)c1Cl` (centres unmarked) [Compound H0896, 3-(1-(2,3-dichloro-4-(pyrazin-2-yl)phenyl)propyl)-1-ethyl-1-(1-methylpiperidin-4-yl)urea]: the EC50 in experiment [1] was > 30000 nM. Also, in experiment [2], the IC50 came out at 7 nM.
Turning to `CC(NC(=O)N(C)C1CCN(C)CC1)c1ccc(-c2cccc3c2cnn3C)c(Cl)c1Cl` (centres unmarked) [Compound H0512, 3-(1-(2,3-dichloro-4-(1-methyl-1H-indazol-4-yl)phenyl)ethyl)-1-methyl-1-(1-methylpiperidin-4-yl)urea], in experiment [1], the EC50 is > 30000 nM. In addition, the IC50 in experiment [2] is 495 nM.
For `CON(C(=O)NC(C#N)c1ccc(-c2cncnc2)c(Cl)c1Cl)C1CCN(C)CC1` (centres unmarked) [Compound H0709], in that order: > 30000 nM and 676 nM.
As for `CC(NC(=O)N(C)C1CCN(C)CC1)c1ccc(-c2ccc(C#N)s2)c(Cl)c1Cl` (centres unmarked) [Compound H0713, 3-(1-(2,3-dichloro-4-(5-cyanothiophen-2-yl)phenyl)ethyl)-1-methyl-1-(1-methylpiperidin-4-yl)urea], in experiment [1], the EC50 was determined as 29 nM and the Emax was determined as 3424. Besides, the IC50 in experiment [2] was determined as 187 nM.
Consider `CC[C@@H](NC(=O)N(C)C1CCN(C)CC1)c1ccc(-c2cnccn2)c(Cl)c1Cl` (single isomer, unassigned) [Compound H0859], for which, in experiment [1], the EC50 is > 30000 nM. Moreover, the half-inhibitory concentration (IC50) in experiment [2] amounted to 2200 nM.
As for `CC(NC(=O)N(C)C1CCN(C)CC1)c1ccc(-c2cncc(C#N)n2)c(Cl)c1Cl` (centres unmarked) [Compound H0788, 3-(1-(2,3-dichloro-4-(6-cyanopyrazin-2-yl)phenyl)ethyl)-1-methyl-1-(1-methylpiperidin-4-yl)urea], in experiment [1], the EC50 came out at 20 nM and the Emax amounted to 1230. Further, the IC50 in experiment [2] was 88 nM.
The like results for `CC(NC(=O)N(C)C1CCN(C)CC1)c1ccc(-c2ccccn2)c(Cl)c1Cl` (centres unmarked) [Compound H0650, 3-(1-(2,3-dichloro-4-(pyridin-2-yl)phenyl)ethyl)-1-methyl-1-(1-methylpiperidin-4-yl)urea] were, in that order, 9 nM, 2150 and 4 nM.
For the compound `COc1ccc(C(C)(C#N)NC(=O)N(C)C2CCN(C)CC2)c(Cl)c1Cl` (centres unmarked) [Compound H0671, 3-(1-cyano-1-(2,3-dichloro-4-methoxyphenyl)ethyl)-1-methyl-1-(1-methylpiperidin-4-yl)urea], in experiment [1], the EC50 was found to be 60 nM and the Emax is recorded as 3748. In experiment [2], the half-maximal inhibitory concentration (IC50) came out at 34 nM.
Consider `CC(NC(=O)N(C)C1CCN(C)CC1)c1ccc(C2=CCCCC2)c(Cl)c1Cl` (centres unmarked) [Compound H0520, 3-(1-(2,3-dichloro-2′,3′,4′,5′-tetrahydro-[1,1′-biphenyl]-4-yl)ethyl)-1-methyl-1-(1-methylpiperidin-4-yl)urea], for which the half-maximal effective concentration (EC50) in experiment [1] turned out to be 394 nM. In experiment [2], the IC50 turned out to be 202 nM.
`COCCc1cncc(-c2ccc(C(C)NC(=O)N(C)C3CCN(C)CC3)c(Cl)c2Cl)c1` (centres unmarked) [Compound H0714, 3-(1-(2,3-dichloro-4-(5-(2-methoxyethyl)pyridin-3-yl)phenyl)ethyl)-1-methyl-1-(1-methylpiperidin-4-yl)urea]: the EC50 in experiment [1] was > 30000 nM. Also, the IC50 in experiment [2] was found to be 453 nM.
For `CON(C)C(=O)c1ccc(-c2ccc(C(C)NC(=O)N(C)C3CCN(C)CC3)c(Cl)c2Cl)s1` (centres unmarked) [Compound H0692, 5-(2,3-dichloro-4-(1-(3-methyl-3-(1-methylpiperidin-4-yl)ureido)ethyl)phenyl)-N-methoxy-N-methylthiophene-2-carboxamide], in that order: > 1000 nM and 550 nM.
For `CC(NC(=O)N(C)C1CCN(C)CC1)c1ccc(C#CC2CC2)c(Cl)c1F` (centres unmarked) [Compound H0855, 3-(1-(3-chloro-4-(cycloprropylethynyl)-2-fluorophenyl)ethyl)-1-methyl-1-(1-methylpiperidin-4-yl)urea], in that order: > 30000 nM and 256 nM.
Regarding `COC(=O)C(NC(=O)N(C)C1CCN(C)CC1)c1ccc(-c2cccs2)c(Cl)c1Cl` (centres unmarked) [Compound H0660, methyl 2-(2,3-dichloro-4-(thiophen-2-yl)phenyl)-2-(3-methyl-3-(1-methylpiperidin-4-yl)ureido)acetate], in experiment [1], the concentration giving a half-maximal response (EC50) is 180 nM and the Emax is reported as 2100. Moreover, the IC50 in experiment [2] was determined as 69 nM.
Take `CN1CCC(N(C)C(=O)NC(C)(C#N)c2ccc(-c3cncnc3)c(Cl)c2Cl)CC1` (centres unmarked) [Compound H0703, 3-(1-cyano-1-(2,3-dichloro-4-(pyrimidin-5-yl)phenyl)ethyl)-1-methyl-1-(1-methylpiperidin-4-yl)urea]: in experiment [1], the EC50 is > 30000 nM. Besides, in experiment [2], the IC50 was 695 nM.
Consider `CC(NC(=O)N(C)C1CCN(C)CC1)c1ccc(-c2ccncn2)c(Cl)c1Cl` (centres unmarked) [Compound H0768, 3-(1-(2,3-dichloro-4-(pyrimidin-4-yl)phenyl)ethyl)-1-methyl-1-(1-methylpiperidin-4-yl)urea], for which the EC50 in experiment [1] is > 30000 nM. Also, the IC50 in experiment [2] worked out at 279 nM.
As for `CC(NC(=O)N(C)C1CCN(C)CC1)c1ccc(-c2cncc(Cl)n2)c(Cl)c1Cl` (centres unmarked) [Compound H0791, 3-(1-(2,3-dichloro-4-(6-chloropyrazin-2-yl)phenyl)ethyl)-1-methyl-1-(1-methylpiperidin-4-yl)urea], the EC50 in experiment [1] is > 30000 nM. For the same compound, the IC50 in experiment [2] turned out to be 75 nM.
For `CC(NC(=O)N(C)C1CCN(C)CC1)c1ccc(-c2cnn(CCO)c2)c(Cl)c1Cl` (centres unmarked) [Compound H0693, 3-(1-(2,3-dichloro-4-(1-(2-hydroxyethyl)-1H-pyrazol-4-yl)phenyl)ethyl)-1-methyl-1-(1-methylpiperidin-4-yl)urea], in that order: 100 nM and 197 nM.
As for `CC(NC(=O)N(C)C1CCN(C)CC1)c1ccc(-c2cnccn2)c2ccccc12` (centres unmarked) [Compound H0850, 1-methyl-1-(1-methylpiperidin-4-yl)-3-(1-(4-(pyrazin-2-yl)naphthalen-1-yl)ethyl)urea], in experiment [1], the EC50 was > 30000 nM. In experiment [2], the IC50 was determined as 1200 nM.
As for `CC(NC(=O)N(C)C1CCN(C)CC1)c1ccc(-c2cncc([N+](=O)[O-])c2)c(Cl)c1Cl` (centres unmarked) [Compound H0766, 3-(1-(2,3-dichloro-4-(5-nitropyridin-3-yl)phenyl)ethyl)-1-methyl-1-(1-methylpiperidin-4-yl)urea], the 50% effective concentration (EC50) in experiment [1] is > 30000 nM. In addition, the IC50 in experiment [2] amounted to 171 nM.
Consider `CC(NC(=O)N(C)C1CCN(C)CC1)c1ccc(-c2cc(F)cc(F)c2)c(Cl)c1Cl` (centres unmarked) [Compound H0605, 3-(1-(2,3-dichloro-3′,5′-difluoro[1,1′-biphenyl]-4-yl)ethyl)-1-methyl-1-(1-methylpiperidin-4-yl)urea], for which, in experiment [1], the EC50 came out at 96 nM and the Emax amounted to 1833. The IC50 in experiment [2] amounted to 31 nM.
Consider `CN1CCC(N(C)C(=O)NC(CO)c2ccc(-c3cncnc3)c(Cl)c2Cl)CC1` (centres unmarked) [Compound H0670, 3-(1-(2,3-dichloro-4-(pyrimidin-5-yl)phenyl)-2-hydroxyethyl)-1-methyl-1-(1-methylpiperidin-4-yl)urea], for which the EC50 in experiment [1] is > 30000 nM. In experiment [2], the IC50 amounted to 523000 nM.
For `CC(NC(=O)N(C)C1CCN(C)CC1)c1ccc(-c2cncc(-c3ncccn3)c2)c(Cl)c1Cl` (centres unmarked) [Compound H0735, 3-(1-(2,3-dichloro-4-(5-(pyrimidin-2-yl)pyridin-3-yl)phenyl)ethyl)-1-methyl-1-(1-methylpiperidin-4-yl)urea], in that order: > 30000 nM and 209 nM.
